Experimental data as given in ChEMBL document CHEMBL3046137, “Benzo[d][1,3] oxathiols: synthesis and biological evaluation as potential atypical antipsychotic agents” (Med Chem Res, 2011).

How the values were obtained:
Mus musculus [1] = assay: Atypical antipsychotic activity in Mus musculus albino (mouse) assessed as inhibition of apomorphine-induced climbing behaviour at 60 mg/kg, ip administered 30 min prior to apomorphine-challenge measured after 5 min for 30 min relative to control; type: functional; settings: route intraperitoneal
Mus musculus [2] = assay: Induction of catalepsy in Mus musculus albino (mouse) at 25 mg/kg, ip measured after 20 min for 5 min; type: organism-based; design: dose 25 mg/kg, route intraperitoneal; settings: in vivo
Mus musculus [3] = assay: Atypical antipsychotic activity in Mus musculus albino (mouse) assessed as inhibition of 5HTP-induced head twitching at 25 mg/kg, ip administered 30 min prior to 5-HTP-challenge measured after 20 min for 5 min
Mus musculus [4] = assay: Induction of catalepsy in ip dosed Mus musculus albino (mouse) measured after 20 min for 5 min; type: organism-based; settings: in vivo
Mus musculus [5] = species on record: Mus musculus; assay: animal or person; settings: albino, ip, read-out: INH
Description: Atypical antipsychotic activity in Mus musculus albino (mouse) assessed as inhibition of apomorphine-induced climbing behaviour at 25 mg/kg, ip administered 30 min prior to apomorphine-challenge measured after 5 min for 30 min relative to control

| Structure (SMILES) | inhibition in vivo at 60 mg/kg (Mus musculus [1]) [%] | Activity (Mus musculus [2]) [%] | inhibition in vivo at 25 mg/kg (Mus musculus [3]) [%] | Activity (Mus musculus [4]) | inhibition in vivo at 25 mg/kg (Mus musculus [5]) [%] |
| --- | --- | --- | --- | --- | --- |
| O=c1oc2cc(OCCCN3CCOCC3)ccc2s1 | 69.6 | 39.27 | 71.5 | Dose-dependent effect | – |
| O=c1oc2cc(OCCCN3CCNCC3)ccc2s1 | 62.3 | 42.39 | 68.2 | Dose-dependent effect | – |
| O=c1oc2cc(OCCCOc3ccc([N+](=O)[O-])cc3)ccc2s1 | 67.3 | 43.92 | 80 | Dose-dependent effect | – |
| CCN(CC)CCCOc1ccc2sc(=O)oc2c1 | 53.3 | 37.11 | 63.4 | Dose-dependent effect | – |
| Cc1ccc(OCCCOc2ccc3sc(=O)oc3c2)cc1 | 52.4 | 39.48 | 77.3 | Dose-dependent effect | – |
| O=c1oc2cc(OCCCn3cnnc3)ccc2s1 | 70 | 36.98 | 79.3 | Dose-dependent effect | – |
| O=c1oc2cc(OCCCOc3ccc4ccccc4c3)ccc2s1 | 47 | 41.22 | 61.1 | Dose-dependent effect | – |
| O=c1oc2cc(OCCCOc3ccc(Cl)cc3)ccc2s1 | 49.3 | 33.71 | 77.9 | Dose-dependent effect | – |
| O=c1oc2cc(OCCCOc3cccc4ccccc34)ccc2s1 | 39 | 49.21 | 58.3 | Dose-dependent effect | – |
| O=C1CCc2ccc(OCCCCN3CCN(c4cccc(Cl)c4Cl)CC3)cc2N1 [ARIPIPRAZOLE] | – | 29.34 | 80.2 | – | 62.4 |
| O=c1oc2cc(OCCCN3CCCCC3)ccc2s1 | 51.2 | 41 | 67.3 | Dose-dependent effect | – |
